Laboratory results reported in EP1991554B1, “THIOPYR[…] COMPOUNDS, METHOD FOR PREPARING THEREOF AND COMPOSITIONS CONTAINING THEM” (C4T S.C. a.r.l., priority 2006, dated 2007).
Where a name gives a salt, the structure may show the parent alone.

Columns and labels:
alkaline phosphatase = assay: Stability test in alkaline aqueous solution in the presence of alkaline phosphatase (enzyme hydrolysis), HPLC-MS; conditions: for resistance to hydrolysis: in words, summary of Table 1; for Percentage of non-hydrolysed compound: 2 mM, pH 8 TRIS-HCl buffer, alkaline phosphatase, ambient temperature
Description: The following compounds were selected for the stability tests in alkaline aqueous solution in the presence of alkaline phosphatase (SIGMA Phosphatase, alkaline-Agarose from calf intestine-P0762): [drawing 25] • Solution A: • pH 8 solution: TRIS-HCl buffer and 2 mM of MgCl2; • Solution B: • comparison versus solution A: 2 mM isopentenyl pyrophosphate (IPP) solution; • Solution C: • 2 mM isopentenyl thiopyrophosphate solution (Compound 8) of this invention into Solution A, • Solution D: • Solution of phosphatase enzyme immobilised on a solid substrate (agarose), 50 biological units into 10 ml of Solution A.
20 µl of Solution D were added to 0.5 ml of Solution B. The system was allowed to stand at ambient temperature under stirring. The solution was filtered to remove the enzyme and it was then analysed with HPLC-MS at predetermined time intervals (20, 30, 40, 50 and 60 minutes).
The same procedure was carried out with Solution C.

[1] = tested on: γδ T lymphocytes of peripheral blood mononucleate cells (PBMCs); assay: Cytokine production assay on peripheral blood mononucleate cells (PBMCs), cytofluorimetry; assay type: cell-based, human; conditions: for activation at 10 µM / activation at 100 µM / activation at 1000 µM: Homo sapiens, PBMC, read-out: % increase in γδ T lymphocytes producing TNFα; for % increase in γδ T lymphocytes producing INFγ: IPP (10 µM) std = 100
Description: γδ T lymphocyte activation was tested by an assay involving the production of cytokines such as TNFα and IFNγ by the γδ T lymphocytes of peripheral blood mononucleate cells (PBMCs) from healthy donors (Poccia, F. et al., The Journal of Immunology 1997, 159, 6009-6017).
Mononucleate cells (PBMCs) were isolated from the peripheral blood of healthy donors, cultured at 37°C on a complete medium comprising RPMI 1640, 10% FCS, 1% L-glutamine, 1% penicillin-streptomycin in the presence of interleukin 2 (IL-2), T lymphocyte growth factor, and 5% CO2 in a controlled humidity environment, and then stimulated with isopentenyl pyrophosphate (IPP 10 µM) as a positive activation control and with various doses (10 µM, 100 µM) and 1000 µM) of compounds according to the invention, respectively.
Then it was performed a cytofluorimetric labelling using specific monoclonal antibodies (membrane labelling for the expansion and intra-cytoplasm labelling for the cytokines) and a cytofluorimetric measurement in order to establish the percentage of γδ T cells producing TNFα and IFNγ (cytokine production assay).

γδ T lymphocyte line = assay: ELISA test for the production of TNFα in the γδ T lymphocyte line; assay type: cell-based, human; conditions: for EC50: Homo sapiens, T-lymphocyte, 24 h
Description: A buffy coat from a healthy donor with a high basal percentage of γδ T lymphocytes (approximately 6%) was selected for growth of the γδ T lymphocyte lines.
The PBMCs were separated out and cultured at a concentration of 1 x 10^6 cells/ml in the presence of IPP (160 ng/ml) and IL-2 (100 U/ml).
After 7 days incubation at 37°C with 5% CO2, 3 ml of medium were sampled and replaced with the same amount of fresh medium ennched with IL-2 (final concentration 100 U/ml).
After a further 7 days in the incubator an aliquot of the cultured cells was taken to label the membrane and measure the percentage of γδ T cells obtained from the expansion.
This cell line was then used to evaluate the production of TNFα following stimulation of the cells with the compounds under investigation, using an ELISA test.
In the ELISA test there were used cells from the line produced as disclosed above in a concentration of 2.5 x 10^5 cells/ml (5 x 10^4 cells/well).
The cells were then stimulated with the compounds under investigation and with isopentenyl pyrophosphate (IPP) as a reference at scalar doses.
After 24 hours the supernatants from the wells containing the stimulated cells were sampled and the ELISA test was carried out using the "Human TNFα Screening Set" kit (Endogen). The kit provides for treatment with an anti-TNFα biotinylate polyclonal antibody, the addition of peroxidase conjugated with streptavidine and quantitative determination using a chromogenic substrate. The plates were read spectrophotometrically at 450 nm.
Each compound was tested in duplicate.

Vγ9Vδ2 cells = assay: Peripheral blood mononucleate cell (PBMC) cellular expansion assay; assay type: cell-based, human; conditions: tenth day of culture
Description: The effect of the compounds of this invention on the expansion of γδ T lymphocytes was investigated through an assay carried out on γδ T lymphocytes originating from the peripheral blood mononucleate cells from healthy donors (PBMCs).
The PBMCs were separated by centrifuging (Ficoll) on whole blood from samples (residual samples) from 7 healthy donors.
In control experiments the cells were treated with IPP at the same concentrations and under the same Experimental conditions.
On the tenth day of culture the cells were recovered and counted by means of a living count with Trypan Blue, and labelled with the same anti-Vd2-FITC antibody, and finally tested by cytofluorimetry to evaluate the percentage of Vγ9Vδ2 cells.
The absolute number of Vγ9Vδ2 cells was calculated using the following formula: No. of Vγ9Vδ2 cells = (total absolute no.of cells after expansion x%of Vγ9Vδ2cells after expansion)/100. [formula]

SMILES | activation at 10 µM [1] | % increase in γδ T lymphocytes producing INFγ ([1]; PBMC/IL-2, 10 µM) | activation at 100 µM [1] | activation at 1000 µM [1] | EC50 (γδ T lymphocyte line) | % increase in γδ T lymphocytes producing INFγ ([1]; PBMC/IL-2, 100 µM) | % increase in γδ T lymphocytes producing INFγ ([1]; PBMC/IL-2, 1000 µM) | also measured
C=C(C)CCO[P@@](=O)(O)OP(=O)(O)O [IPP, isopentenyl pyrophosphate, reference compound] | 100% | 100% | – | – | – | – | – | resistance to hydrolysis (alkaline phosphatase): degrades rapidly; Percentage of non-hydrolysed compound (alkaline phosphatase; t = 0 min): 94%; Percentage of non-hydrolysed compound (alkaline phosphatase; t = 20 min): 48%; Percentage of non-hydrolysed compound (alkaline phosphatase; t = 30 min): 54%; Percentage of non-hydrolysed compound (alkaline phosphatase; t = 60 min): 27%
C/C(=C\CSP(=O)(O)OP(=O)(O)O)CO [Compound 9, S-[(E)-4-hydroxy-3-methyl-2-butenyl]ester of the trisodium salt of thiodiphosphoric acid] | 82.3% | – | 175% | 464% | 0.0048 µM | – | – | activity (γδ T cells producing cytokines) ([1]; in words, at 100 and 1000 µM): a very clear increase; EC50 relative to the EC50 for IPP (γδ T lymphocyte line; production of TNFα, γδ T lymphocyte line): 1000 times; Expansion Index (Vγ9Vδ2 cells; Donor A): 129.28; Expansion Index (Vγ9Vδ2 cells; Donor B): 80.96; Expansion Index (Vγ9Vδ2 cells; Donor C): 5.30; Expansion Index (Vγ9Vδ2 cells; Donor D): 59.10; Expansion Index (Vγ9Vδ2 cells; Donor E): 624.02; Expansion Index (Vγ9Vδ2 cells; Donor F): 35.37; Expansion Index (Vγ9Vδ2 cells; Donor G): 42.09
O=P(O)(O)OP(=O)(O)SCCCCCl [Compound 1, S-(4-chlorobutyl) ester of the trisodium salt of thiodiphosphoric acid] | 81% | 131% | 127% | 81.5% | 100 µM | 94% | 132% | –
C=C(C)CCSP(=O)(O)OP(=O)(O)O [Compound 8, S-(3-methyl-3-butenyl)ester of the triammonium salt of thiodiphosphoric acid] | 39% | 21% | 92.6% | 174% | 3.75 µM | 865% | 182% | resistance to hydrolysis (alkaline phosphatase): very much more resistant to hydrolysis; Percentage of non-hydrolysed compound (alkaline phosphatase; t = 0 min): 100%; Percentage of non-hydrolysed compound (alkaline phosphatase; t = 20 min): 90%; Percentage of non-hydrolysed compound (alkaline phosphatase; t = 30 min): 90%; Percentage of non-hydrolysed compound (alkaline phosphatase; t = 40 min): 90%; Percentage of non-hydrolysed compound (alkaline phosphatase; t = 50 min): 90%; Percentage of non-hydrolysed compound (alkaline phosphatase; t = 60 min): 90%
O=P(O)(O)OP(=O)(O)SCCOCCCl [Compound 2, S-[2-(2-chloroethoxy)ethyl] ester of the trisodium salt of thiodiphosphoric acid] | 60.4% | 56.4% | 71.8% | 765% | 0.39 µM | 67% | 97.3% | –
C=CCOCCSP(=O)(O)OP(=O)(O)O [Compound 4, S-[2-(allyloxy)ethyl]ester of the trisodium salt of thiodiphosphoric acid] | 70.7% | – | 130% | 299% | 10 µM | – | – | –
O=P(O)(O)OP(=O)(O)SCCC1CC1 [Compound 3, S-(2-cyclopropylethyl)ester of the trisodium salt of thiodiphosphoric acid] | 495% | – | 123% | 158% | 13 µM | – | – | –
C[C@H](O)CCSP(=O)(O)OP(=O)(O)O [Compound 6, S-(3-hydroxybutyl)ester of the trisodium salt of biodiphosphoric acid] | 40% | – | 114% | 310% | 75 µM | – | – | –
